{
  "source": "patent US10407445B2",
  "about": "“Hepatitis C virus inhibitors” (ENANTA PHARMACEUTICALS, INC., priority 2013, dated 2019)",
  "type_in_all_cases": "cell-based",
  "key": {"HCV GT 1a replicon": {"test_system": "HCV GT 1a replicon", "experiment": "HCV replicon assay, stable GT 1a replicon (Renilla luciferase)", "conditions": "Hepatitis C virus, GT1A; HCV GT 1a replicon, 72 h; read-out: EC50 1a", "procedure,_shortened": "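Huh-7.5 cells stably carrying a GT1a replicon (H77-based) with Renilla luciferase-Neo reporter, 4000 cells/well, sixteen-point half-log compound series, phenol red-free DMEM without G418. Luciferase read after 72 h relative to DMSO-treated cells gives EC50.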"}, "HCV GT 3a replicon": {"test_system": "HCV GT 3a replicon", "experiment": "HCV replicon assay, GT2a chimeric replicon expressing NS5A from GT3a strain S52", "conditions": "Hepatitis C virus, 72 h, read-out: EC50 3a", "protocol": "The activity of compounds was determined against HCV replicons representing genotypes (GT) 1a, 1b, 2a, and 3a. To generate stable Huh-7.5-based cell lines, HCV replicons were engineered to express the Renilla luciferase reporter (hRluc) fused to the neomycin phosphotransferase (Neo) gene. GT2a and GT3a HCV replicons were based on the JFH-1 subgenomic replicon (Kato et al. 2003 Gastroenterology, 125:1808-1817), in which the NS5A gene was replaced with that of strains J6 and S52 (GT2a and G3a, respectively). The activity of compounds against GT1a replicons encoding NS5A mutations (M28T, Q30R, L31M, Y93C, and Y93H) was also determined in a transient replication assay. The parental GT1a and GT2a replicons (pH/SG-Neo(L+I) and pSG-Neo-JFH1, respectively) were licensed from Apath LLC (Saint Louis, Mo.). The parental GT 1b replicon (pFKi389lucubineo_3_3′_ET) was licensed from ReBLikon GmbH (Germany). HCV replicons were constructed by standard molecular biology techniques described below. All replicon constructs were verified by restriction enzyme digestion and DNA sequencing.\nThe plasmid pSG-hRlucNeo-JFH1 was generated from pSG-Neo-JFH1 (Kato et al. 2003, Gastroentrology 125:1808-1817). A fragment containing the JFH-1 5′ NTR—hRluc-Neo gene and two unique restriction sites (AgeI and PmeI) was synthesized (Integrated DNA Technologies, Coralville, Iowa). The resulting synthetic plasmid was digested with AgeI and PmeI and the excised fragment (5′NTR-hRluc-Neo) was ligated into pSG-Neo-JFH1 digested with the same enzymes to generate pSG-hRlucNeo-JFH1. To allow expression of heterologous NS5A sequences, an NS5A shuttle vector was generated from pSG-Neo-JFH1, in which the entire coding sequence of NS5A plus the first eight codons of NS5B were replaced with an AfeI restriction site. This was done by Infusion cloning (Clontech, Mountain View, Calif.) from two PCR products that were generated using pSG-Neo-JFH1 as a template and the following primer pairs:\nUnderlined sequences denote regions of overlap necessary for Infusion cloning. Purified PCR products were cloned directly into an NsiI/SnaBI digested pSG-Neo-JFH1 following the manufacturer's instructions to generate pSG-Neo-JFH1-5Ashuttle. The 2023 base pair AgeI/PmeI fragment from pSG-hRlucNeo-JFH1 was then ligated into pSG-Neo-JFH1-5Ashuttle to generate pSG-hRlucNeo-JFH1-5Ashuttle. To generate the 2a-2a-(J6) and 2a-3a-(S52) NS5A chimeric replicons, the full length NS5A sequences from GT2a strain J6 (accession AF177036) and GT3a strain S52 (accession GU814263), with the addition of the first eight codons of JFH-1 NS5B (5′-TCCATGTCATACTCCTGGACCGGG-3′), were synthesized by GeneArt (Life Technologies, Carlsbad Calif.). J6 and S52 NS5A sequences were then PCR amplified from the synthetic clones using the appropriate forward primer:\nUnderlined sequences denote regions of overlap with pSG-hRlucNeo-JFH1-5Ashuttle necessary for Infusion cloning. Purified PCR products were directly cloned into AfeI-digested shuttle vector by Infusion cloning following the manufacturer's instructions.\nStable HCV replicon cell lines were grown in complete media (Dulbecco's modified Eagle medium [DMEM], 2 mM L-glutamine, 0.1 mM essential amino acids, 1 mM sodium pyruvate, 10% heat inactivated fetal bovine serum) with the addition 500 μg/ml […] (G418). Huh7-lunet cells were maintained in the same medium without the addition of G418. Cells were routinely passaged at a dilution of 1:4 two times a week. The assay medium for both luciferase reporter HCV replicon and cytotoxicity assays used phenol red-free DMEM and lacked G418. For each stable replicon assay, a sixteen point half-log dilution series of compound was stamped (0.5 ul compound per well) into three replica 384-well plates, to which cells were added directly (4000 cells/well). […]"}, "[1]": {"test_system": "GT1a replicon encoding NS5A mutation Q30R", "experiment": "Transient replication assay, GT1a replicon with NS5A mutation Q30R", "conditions": "Hepatitis C virus, read-out: EC50 1a Q30R"}},
  "data": [
    {"compound": "COC(=O)N[C@H](C(=O)N1C[C@]2(CCCOC2)C[C@H]1c1ncc(-c2ccc3c(c2)COc2cc(-c4cnc([C@@H]5C[C@@H]6CCCC[C@@H]6N5C(=O)[C@@H](NC(=O)OC)C(C)C)[nH]4)ccc2-3)[nH]1)C(C)C", "note": "[Compound 15]", "values": [
      {"measurement": "EC50", "setting": "HCV GT 1a replicon", "value": 0.008, "unit": "nM"},
      {"measurement": "EC50", "setting": "HCV GT 3a replicon", "value": 0.2, "unit": "nM"},
      {"measurement": "EC50", "setting": "[1]", "value": 0.003, "unit": "nM"}
    ]},
    {"compound": "COC(=O)N[C@H](C(=O)N1C[C@]2(CCCOC2)C[C@H]1c1nc2ccc3cc(-c4ccc(-c5cnc([C@@H]6C[C@H]7C[C@H]7N6C(=O)[C@@H](NC(=O)OC)C(C)C)[nH]5)cc4)ccc3c2[nH]1)C(C)C", "note": "[Compound 5]", "values": [
      {"measurement": "EC50", "setting": "HCV GT 1a replicon", "value": 0.008, "unit": "nM"},
      {"measurement": "EC50", "setting": "HCV GT 3a replicon", "value": 0.5, "unit": "nM"},
      {"measurement": "EC50", "setting": "[1]", "value": 0.05, "unit": "nM"}
    ]},
    {"compound": "COC(=O)N[C@H](C(=O)N1C[C@]2(CCCOC2)C[C@H]1c1nc2ccc3cc(-c4ccc5c(ccc6nc([C@@H]7C[C@@H]8COC[C@@H]8N7C(=O)[C@@H](NC(=O)OC)C(C)C)[nH]c65)c4)ccc3c2[nH]1)C(C)C", "note": "[Compound 36]", "values": [
      {"measurement": "EC50", "setting": "HCV GT 1a replicon", "value": 0.029, "unit": "nM"},
      {"measurement": "EC50", "setting": "HCV GT 3a replicon", "value": 1, "unit": "nM"},
      {"measurement": "EC50", "setting": "[1]", "value": 0.04, "unit": "nM"}
    ]},
    {"compound": "COC(=O)N[C@H](C(=O)N1CC2(CC2)C[C@H]1c1ncc(-c2ccc(-c3ccc4c(ccc5nc([C@@H]6C[C@@]7(CCCOC7)CN6C(=O)[C@@H](NC(=O)OC)C(C)C)[nH]c54)c3)cc2)[nH]1)C(C)C", "note": "[Compound 8]", "values": [
      {"measurement": "EC50", "setting": "HCV GT 1a replicon", "value": 0.01, "unit": "nM"},
      {"measurement": "EC50", "setting": "HCV GT 3a replicon", "value": 0.9, "unit": "nM"},
      {"measurement": "EC50", "setting": "[1]", "value": 0.1, "unit": "nM"}
    ]},
    {"compound": "COC(=O)N[C@H](C(=O)N1C[C@@]2(CCOC2)C[C@H]1c1ncc(-c2ccc(-c3ccc4c(ccc5nc([C@@H]6C[C@]7(CCOC7)CN6C(=O)[C@@H](NC(=O)OC)C(C)C)[nH]c54)c3)cc2)[nH]1)C(C)C", "note": "[Compound 49]", "values": [
      {"measurement": "EC50", "setting": "HCV GT 1a replicon", "value": 0.01, "unit": "nM"},
      {"measurement": "EC50", "setting": "HCV GT 3a replicon", "value": 5, "unit": "nM"},
      {"measurement": "EC50", "setting": "[1]", "value": 0.2, "unit": "nM"}
    ]},
    {"compound": "COC(=O)N[C@H](C(=O)N1CCC[C@H]1c1ncc(-c2ccc(-c3ccc4c(ccc5nc([C@@H]6C[C@]7(CCOC7)CN6C(=O)[C@@H](NC(=O)OC)C(C)C)[nH]c54)c3)cc2)[nH]1)C(C)C", "note": "[Compound 51]", "values": [
      {"measurement": "EC50", "setting": "HCV GT 1a replicon", "value": 0.011, "unit": "nM"},
      {"measurement": "EC50", "setting": "HCV GT 3a replicon", "value": 2, "unit": "nM"},
      {"measurement": "EC50", "setting": "[1]", "value": 0.2, "unit": "nM"}
    ]},
    {"compound": "COC(=O)N[C@H](C(=O)N1[C@H](c2nc3ccc4cc(-c5ccc(-c6cnc([C@@H]7C[C@@]8(CCCOC8)CN7C(=O)[C@H](NC(=O)OC)C7C[C@@H](C)O[C@H](C)C7)[nH]6)cc5)ccc4c3[nH]2)C[C@@H]2CCCC[C@@H]21)C(C)C", "note": "(stereo in doubt) [Compound 39]", "values": [
      {"measurement": "EC50", "setting": "HCV GT 1a replicon", "value": 0.214, "unit": "nM"},
      {"measurement": "EC50", "setting": "HCV GT 3a replicon", "value": 48, "unit": "nM"},
      {"measurement": "EC50", "setting": "[1]", "value": 0.05, "unit": "nM"}
    ]},
    {"compound": "COC(=O)N[C@H](C(=O)N1C[C@]2(CCCOC2)C[C@H]1c1ncc(-c2ccc(-c3ccc4c(c3)OCc3nc([C@@H]5CCCN5C(=O)[C@@H](NC(=O)OC)C(C)C)[nH]c3-4)cc2)[nH]1)C(C)C", "note": "[Compound 30]", "values": [
      {"measurement": "EC50", "setting": "HCV GT 1a replicon", "value": 0.05, "unit": "nM"},
      {"measurement": "EC50", "setting": "HCV GT 3a replicon", "value": 2, "unit": "nM"},
      {"measurement": "EC50", "setting": "[1]", "value": 0.1, "unit": "nM"}
    ]},
    {"compound": "COC(=O)N[C@H](C(=O)N1C[C@]2(CCCOC2)C[C@H]1c1ncc(-c2ccc(-c3ccc4c(c3)OCc3nc([C@@H]5C[C@@H]6CCCC[C@@H]6N5C(=O)[C@@H](NC(=O)OC)C(C)C)[nH]c3-4)cc2)[nH]1)C(C)C", "note": "[Compound 42]", "values": [
      {"measurement": "EC50", "setting": "HCV GT 1a replicon", "value": 0.006, "unit": "nM"},
      {"measurement": "EC50", "setting": "HCV GT 3a replicon", "value": 1, "unit": "nM"},
      {"measurement": "EC50", "setting": "[1]", "value": 0.05, "unit": "nM"}
    ]},
    {"compound": "COC(=O)N[C@H](C(=O)N1C[C@]2(CCCOC2)C[C@H]1c1ncc(-c2ccc(-c3ccc4c(ccc5nc([C@@H]6C[C@@H]7COC[C@@H]7N6C(=O)[C@@H](NC(=O)OC)C(C)C)[nH]c54)c3)cc2)[nH]1)C(C)C", "note": "[Compound 35]", "values": [
      {"measurement": "EC50", "setting": "HCV GT 1a replicon", "value": 0.028, "unit": "nM"},
      {"measurement": "EC50", "setting": "HCV GT 3a replicon", "value": 2, "unit": "nM"},
      {"measurement": "EC50", "setting": "[1]", "value": 0.07, "unit": "nM"}
    ]},
    {"compound": "COC(=O)N[C@H](C(=O)N1C[C@]2(CCCOC2)C[C@H]1c1ncc(-c2ccc3c(ccc4cc(-c5cnc([C@@H]6C[C@@H]7CCCC[C@@H]7N6C(=O)[C@@H](NC(=O)OC)C(C)C)[nH]5)ccc43)c2)[nH]1)C(C)C", "note": "[Compound 17]", "values": [
      {"measurement": "EC50", "setting": "HCV GT 1a replicon", "value": 0.012, "unit": "nM"},
      {"measurement": "EC50", "setting": "HCV GT 3a replicon", "value": 6, "unit": "nM"},
      {"measurement": "EC50", "setting": "[1]", "value": 0.01, "unit": "nM"}
    ]},
    {"compound": "COC(=O)N[C@H](C(=O)N1CCC[C@H]1c1nc2c([nH]1)-c1ccc(-c3ccc4c(ccc5nc([C@@H]6C[C@@]7(CCCOC7)CN6C(=O)[C@@H](NC(=O)OC)C(C)C)[nH]c54)c3)cc1OC2)C(C)C", "note": "[Compound 25]", "values": [
      {"measurement": "EC50", "setting": "HCV GT 1a replicon", "value": 0.027, "unit": "nM"},
      {"measurement": "EC50", "setting": "HCV GT 3a replicon", "value": 0.6, "unit": "nM"},
      {"measurement": "EC50", "setting": "[1]", "value": 0.2, "unit": "nM"}
    ]}
  ]
}
